Source: patent US4859779A, “Dopamine-β-hydroxylase inhibitors” (SmithKline Beckman Corporation, priority 1989, dated 1989)
Counter-ions that a name gives are not always drawn.

How the values were obtained:
DBH = biological target: T1, DBH (Homo sapiens, UniProt P09172); conditions: literature reports; cited from earlier work
T1 sequence (P09172 1-617): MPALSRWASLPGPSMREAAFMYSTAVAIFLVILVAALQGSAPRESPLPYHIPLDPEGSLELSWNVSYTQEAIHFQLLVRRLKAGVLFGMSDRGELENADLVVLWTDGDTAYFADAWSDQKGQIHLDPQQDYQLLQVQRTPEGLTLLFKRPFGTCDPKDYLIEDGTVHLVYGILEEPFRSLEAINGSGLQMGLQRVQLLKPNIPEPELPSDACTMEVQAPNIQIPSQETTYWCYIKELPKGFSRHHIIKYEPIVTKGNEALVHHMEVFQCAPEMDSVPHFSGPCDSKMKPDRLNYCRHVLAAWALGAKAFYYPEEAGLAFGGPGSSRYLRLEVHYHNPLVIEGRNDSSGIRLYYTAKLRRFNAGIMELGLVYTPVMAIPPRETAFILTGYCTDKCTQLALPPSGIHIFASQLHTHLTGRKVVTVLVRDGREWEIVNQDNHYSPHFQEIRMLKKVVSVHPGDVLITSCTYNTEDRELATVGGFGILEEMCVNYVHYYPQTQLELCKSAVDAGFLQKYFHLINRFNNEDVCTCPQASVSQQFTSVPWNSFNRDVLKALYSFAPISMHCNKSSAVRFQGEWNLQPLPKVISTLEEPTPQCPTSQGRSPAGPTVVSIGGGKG

[1] = Ehrreich et al., 1976; cited from earlier work
[2] = system: spontaneously hypertensive rats; assay: mean arterial blood pressure in spontaneously hypertensive rats (indwelling tail artery cannulae); format: in vivo, rat; conditions: 50 mg/kg intraperitoneally
Description: Further, spontaneously hypertensive rats were treated with a suspension or solution of N-(2-aminoethyl)-1-(3,5-difluorobenzyl)-2-mercaptoimidazole-5-carboxamide,formate at a dose of 50 mg/kg intraperitoneally, and mean arterial blood pressure was monitored for 260 minutes using indwelling cannulae in the tail arteries.

Row | SMILES | DBH inhibition (in words) (DBH) | also measured
1 | O=C(O)c1ccc(CCC(Br)CBr)cn1 (stereo not drawn) [5-(3,4-dibromobutyl)picolinic acid] | DBH inhibitors | –
2 | O=C(O)c1ccc(CCCCCl)cn1 [5-(4-chlorobutyl) picolinic acid] | inhibit DBH | –
3 | CN(C)C(=S)SCc1ccc(C(=O)O)nc1 [5-(dimethyldithiocarbamoylmethyl)picolinic acid] | DBH inhibitors | –
4 | NOCc1ccccc1 [Benzyloxyamine] | apparently act as competitive inhibitors | –
5 | CCCCc1ccc(C(N)=O)nc1 [Bupicomide, 5-(n-butyl)picolinamine] | DBH inhibitor | antihypertensive activity [1]: antihypertensive activity
6 | NCCNC(=O)c1cnc(S)n1Cc1cc(F)cc(F)c1 [N-(2-Aminoethyl)-1-(3,5-difluorobenzyl)-2-mercaptoimidazole-5-carboxamide,formate] | – | blood pressure reduction compared to vehicle-treated controls ([2]; suspension or solution, mean arterial blood pressure, within 30 minutes following treatment): significant blood pressure reductions; time to significant blood pressure reduction ([2]; versus vehicle-treated controls): ≤ 30 min
7 | NNCc1ccccc1 [benzylhydrazine] | apparently act as competitive inhibitors | –
